Read-outs that look alike come from different tables or passages of the source.
Key:
[1] = molecular target: T1, PGD2 receptor (Homo sapiens, UniProt Q13258); test: Binding activity to PGD2 receptor ([3H]PGD2, human platelet membrane fraction)
T1 construct: A suspension adjusted to contain the platelets at a final concentration of 5×10^8/ml was warmed at 37° C; endogenous in cells; host or cells: washed human platelets from a healthy volunteer
T1 sequence (Q13258 1-359): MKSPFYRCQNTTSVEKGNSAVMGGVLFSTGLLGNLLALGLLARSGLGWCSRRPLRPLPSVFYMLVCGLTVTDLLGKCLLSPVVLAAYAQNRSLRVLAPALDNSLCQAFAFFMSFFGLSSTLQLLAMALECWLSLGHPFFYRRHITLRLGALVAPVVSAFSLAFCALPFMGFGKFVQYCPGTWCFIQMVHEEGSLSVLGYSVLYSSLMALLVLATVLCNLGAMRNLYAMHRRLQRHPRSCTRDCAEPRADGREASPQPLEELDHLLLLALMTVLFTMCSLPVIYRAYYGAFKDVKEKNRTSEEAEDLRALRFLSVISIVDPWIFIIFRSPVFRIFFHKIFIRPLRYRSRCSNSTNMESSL
Protocol: Experiment 1 Binding Activity to PGD2 Receptor
(§1) (1) Preparation of Human Platelet Membrane Fraction
Blood was collected using a plastic syringe containing 3.8% sodium citrate from the vein of healthy volunteers (adult male and female), then put into a plastic test tube and mixed by slow-reversion. The sample was then centrifuged at 1800 rpm, for 10 min at room temperature, and the supernatant containing PRP (platelet-rich plasma) was collected. The PRP was re-centrifuged at 2300 rpm, for 22 min at room temperature to obtain platelets. The platelets were homogenized using a homogenizer (Ultra-Turrax) followed by centrifugation 3 times at 20,000 rpm, 10 min at 4° C. to obtain a platelet membrane fraction. After protein determination, the membrane fraction was adjusted to 2 mg/ml and preserved in a refrigerator at −80° C. until using for the binding test.
(2) Binding to PGD2 Receptor
To a binding-reaction solution (50 mM Tris/HCl, pH 7.4, 5 mM MgCl2) (0.2 ml) were added the human platelet membrane fraction (0.1 mg) and 5 nM [^3H]PGD2 (115 Ci/mmol), and the mixture was reacted at 4° C. for 90 min. After the reaction, the mixture was filtered through a glass fiber filter paper and washed several times with cooled physiological saline, then the radioactivity retained on the filter paper was measured. The specific-binding ratio was calculated by subtracting the non-specific binding ratio which is the radioactivity similarly measured in the presence of 10 μM PGD2 from the total binding. The inhibitory activity of each compound was expressed as the concentration required for 50% inhibition (IC50), which was determined by depicting a substitution curve by plotting the binding ratio (%) in the presence of each compound, where the binding ratio in the absence of a test compound is 100%.

[2] = molecular target: T1, PGD2 receptor; test: Antagonistic activity against PGD2 receptor using human platelet (inhibition of PGD2-induced cAMP increase); assay type: cell-based
Protocol: Experiment 3 Evaluation of Antagonistic Activity Against PGD2 Receptor
Receptor Using Human Platelet
Peripheral blood was collected from a healthy volunteer using a syringe in which 1/9 volume of a citric acid/dextrose solution was previously added. The sample was subjected to centrifugation at 1200 rpm for 10 min to obtain the supernatant (PRP: platelet rich plasma). The resultant PRP was washed 3 times with a washing buffer and the number of platelets was counted with a micro cell counter. A suspension adjusted to contain the platelets at a final concentration of 5×10^8/ml was warmed at 37° C., then subjected to the pre-treatment with 3-isobutyl-1-methylxanthine (0.5 mM) for 5 min. To the suspension was added a test compound diluted at various concentration, and 10 minutes later, 0.1 μM PGD2 was added to induce the reaction 2 minutes later, hydrochloric acid was added to terminate the reaction. The platelet was destroyed with an ultrasonic homogenizer. After centrifugation, the cAMP in the supernatant was determined by radioimmunoassay. PGD2 receptor antagonism of a drug was evaluated as follows: the inhibition rate regarding cAMP increased by the addition of PGD2 was determined at each concentration, and the concentration of the drug required for 50% inhibition (IC50) was calculated.

[3] = Change of plasma concentration of drug in rat (half life of the disappearance after i.v. administration); assay type: in vivo; settings: Jcl-SD male rats, 0.5 to 2 mg/kg intravenously, unchanged compound
Protocol: Experiment 4 Change of Plasma Concentration of Drug in Rat
Compound (0.5 to 2 mg/kg) was administered intravenously to Jcl-SD male rats.

[4] = molecular target: T2, TXA2 receptor (Homo sapiens, UniProt P21731); test: Binding activity to TXA2 receptor ([3H](+)-S-145 sodium salt, human platelet membrane fraction)
T2 construct: The human platelet membrane fraction was prepared in accordance with Experiment 1 (1); from tissue; host or cells: human platelet membrane fraction from blood of healthy volunteers
T2 sequence (P21731 1-343): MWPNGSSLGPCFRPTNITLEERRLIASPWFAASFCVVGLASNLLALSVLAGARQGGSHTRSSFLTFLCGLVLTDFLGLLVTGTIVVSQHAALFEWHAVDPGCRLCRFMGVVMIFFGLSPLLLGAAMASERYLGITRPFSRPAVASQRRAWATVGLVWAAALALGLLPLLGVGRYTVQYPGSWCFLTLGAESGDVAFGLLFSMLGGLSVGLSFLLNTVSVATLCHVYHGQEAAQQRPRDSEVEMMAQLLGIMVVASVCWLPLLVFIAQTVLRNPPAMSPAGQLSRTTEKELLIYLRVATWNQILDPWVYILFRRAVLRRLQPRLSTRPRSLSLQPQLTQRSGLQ
Protocol: Experiment 2 Binding Activity to TXA2 Receptor
as §1
The human platelet membrane fraction was prepared in accordance with Experiment 1 (1).
(2) Binding to TXA2 Receptor
To a binding-reaction solution (50 mM Tris/HCl, pH 7.4, 10 mM MgCl2) (0.2 ml) were added the human platelet membrane fraction (0.05 mg) and 2 nM Sodium [^3H](+)-(5Z)-7-[3-endo-[(phenylsulfonyl)amino]bicyclo[2.2.1]hept-2-exo-yl]heptenoate (Japanese Patent Publication (Kokoku) No.79060/1993, hereinafter referred to as (+)-S-145 sodium salt) (26.4 Ci/mmol), and the mixture was reacted at room temperature for 90 min. After the reaction, the resultant mixture was filtered through a glass fiber filter paper and washed several times with cooled physiological saline, then the radioactivity retained on the filter paper was measured. The specific-binding ratio was calculated by subtracting the non-specific binding ratio (the radio activity similarly determined in the presence of 10 μM (+)-S-145 sodium salt) from the total binding. The inhibitory activity of each compound was expressed as the concentration required for 50% inhibition (IC50), which was determined by depicting a substitution curve by plotting the binding ratio (%) in the presence of each compound, where the binding ratio in the absence of a test compound is 100%.

[5] = human platelet membrane fraction, read-out: Binding activity to PGD2 receptor in human platelet membrane fraction IC50
[6] = human platelet, 0.1 μM PGD2, read-out: Inhibitory activity for the increase of cAMP caused by PGD2 in human platelet IC50
[7] = human platelet membrane fraction, 2 nM [3H](+)-S-145 sodium salt, read-out: Binding activity to TXA2 receptor in human platelet membrane fraction IC50

SMILES | IC50 [1, 5] | IC50 [2, 6] | half life of the disappearance [3] | IC50 [4, 7] | IC50 ([1]; comparative experiment in accordance with Experiment 1, read-out: Experiment 1 Antagonistic activity against PGD2 receptor IC50) | IC50 ([2]; comparative experiment in accordance with Experiment 3, read-out: Experiment 3 Antagonistic activity against PGD2 receptor IC50) | IC50 ([4]; comparative experiment in accordance with Experiment 2, read-out: Experiment 2 Antagonistic activity against TXA2 receptor IC50)
O=C(O)CCC/C=C\C[C@H]1[C@@H]2CC[C@@H](C2)[C@@H]1NC(=O)c1ccc(S(=O)(=O)n2cccc2)s1 [I-1] | 4.3 nM | 1.3 nM | 9.4 min | 3 nM |  |  | 
O=C(O)CCC/C=C\C[C@H]1[C@@H]2CC[C@@H](C2)[C@@H]1NC(=O)c1ccc(S(=O)(=O)c2cccs2)s1 [I-47] | 4.1 nM | 7 nM |  | 6.2 nM |  |  | 
O=C(O)CCC/C=C\C[C@H]1[C@@H]2CC[C@@H](C2)[C@@H]1NC(=O)c1ccn(S(=O)(=O)c2cccs2)c1 [I-94] | 1 nM | 10 nM |  | 83 nM |  |  | 
Cc1ccc(Cc2ccc(C(=O)N[C@H]3[C@H]4CC[C@H](C4)[C@@H]3C/C=C\CCCC(=O)O)s2)c(C)c1 [I-128] | 20 nM | 10 nM |  | 48 nM |  |  | 
O=C(O)CCC/C=C\C[C@H]1[C@@H]2CC[C@@H](C2)[C@@H]1NC(=O)c1ccc(S(=O)(=O)n2cccc2)cc1 [I-10] | 1.6 nM | 1.8 nM |  | 92 nM |  |  | 
O=C(O)COCCCC[C@H]1[C@@H]2CC[C@@H](C2)[C@@H]1NC(=O)c1ccc(S(=O)(=O)n2cccc2)s1 [I-7M-1a] |  |  | 26.3 min |  |  |  | 
Cc1cccc(Cc2ccc(C(=O)N[C@H]3[C@H]4CC[C@H](C4)[C@@H]3C/C=C\CCCC(=O)O)s2)c1 [I-131] | 44 nM | 41 nM |  | 19 nM |  |  | 
O=C(O)CCC/C=C\C[C@H]1[C@@H]2CC[C@@H](C2)[C@@H]1NC(=O)c1ccc(SCc2cccs2)cc1 [I-66] | 4.6 nM | 44 nM |  | 34 nM |  |  | 
Cc1ccc(S(=O)(=O)c2ccc(C(=O)N[C@H]3[C@H]4CC[C@H](C4)[C@@H]3C/C=C\CCCC(=O)O)s2)s1 [I-82] | 32 nM | 53 nM |  | 1.8 nM |  |  | 
O=C(O)CCC/C=C\C[C@H]1[C@@H]2CC[C@@H](C2)[C@@H]1NC(=O)c1csc2c(Cc3ccccc3)cccc12 [I-143] | 2.7 nM | 1.9 nM | 4.7 min | 28 nM |  |  | 
O=C(O)CCC/C=C\C[C@H]1[C@@H]2CC[C@@H](C2)[C@@H]1NC(=O)c1ccc(SCc2cccs2)s1 [I-106] | 13 nM | 9.3 nM |  | 13 nM |  |  | 
CC1(C)[C@H]2C[C@H](C/C=C\CCCC(=O)O)[C@@H](NC(=O)c3csc4ccccc34)[C@@H]1C2 [B-1, reference compound] |  |  |  |  | 22 nM | 30 nM | 370 nM
O=C(O)CCC/C=C\C[C@H]1[C@@H]2CC[C@@H](C2)[C@@H]1NC(=O)c1cc(Cc2cccs2)cs1 [I-88] | 7.6 nM | 4.7 nM |  | 78 nM |  |  | 
O=C(O)CCC/C=C\C[C@H]1[C@@H]2CC[C@@H](C2)[C@@H]1NC(=O)c1ccc(Cc2ccc(OCc3ccccc3)c(O)c2)s1 [I-146] | 44 nM | 73 nM |  | 19 nM |  |  | 
O=C(O)CCC/C=C\C[C@H]1[C@@H]2CC[C@@H](C2)[C@@H]1NC(=O)c1ccc(Sc2ccsc2)s1 [I-79] | 0.42 nM | 24 nM |  | 15 nM |  |  | 
Cc1cccc(SCc2ccc(C(=O)N[C@H]3[C@H]4CC[C@H](C4)[C@@H]3C/C=C\CCCC(=O)O)s2)c1 [I-132] | 32 nM | 43 nM |  | 12 nM |  |  | 

Second part, the compound after the results:

IC50 [1, 5] | IC50 [2, 6] | half life of the disappearance [3] | IC50 [4, 7] | IC50 ([1]; comparative experiment in accordance with Experiment 1, read-out: Experiment 1 Antagonistic activity against PGD2 receptor IC50) | IC50 ([2]; comparative experiment in accordance with Experiment 3, read-out: Experiment 3 Antagonistic activity against PGD2 receptor IC50) | IC50 ([4]; comparative experiment in accordance with Experiment 2, read-out: Experiment 2 Antagonistic activity against TXA2 receptor IC50) | SMILES
0.1 nM | 24 nM | 11.0 min | 14 nM |  |  |  | CC1(C)[C@H]2C[C@H](C/C=C\CCCC(=O)O)[C@@H](NC(=O)c3ccc(Sc4cccs4)s3)[C@@H]1C2 [II-59]
4.6 nM | 4 nM |  | 45 nM |  |  |  | COc1ccccc1Cc1ccc(C(=O)N[C@@H]2[C@@H](C/C=C\CCCC(=O)O)C[C@H]3C[C@@H]2C3(C)C)s1 [II-126]
72 nM | 45 nM |  | 4 nM |  |  |  | Cc1cc(S(=O)(=O)c2ccc(C(=O)N[C@@H]3[C@@H](C/C=C\CCCC(=O)O)C[C@H]4C[C@@H]3C4(C)C)s2)cs1 [II-101]
22 nM | 24 nM |  | 2.6 nM |  |  |  | CC1(C)[C@H]2C[C@H](C/C=C\CCCC(=O)O)[C@@H](NC(=O)c3ccc(S(=O)(=O)c4cccc(O)c4)s3)[C@@H]1C2 [II-117]
0.96 nM | 4 nM |  | 3.6 nM |  |  |  | CC1(C)[C@H]2C[C@H](C/C=C\CCCC(=O)O)[C@@H](NC(=O)c3ccc(S(=O)(=O)c4cccs4)s3)[C@@H]1C2 [II-47]
2 nM | 11 nM |  | 12 nM |  |  |  | CC1(C)[C@H]2C[C@H](C/C=C\CCCC(=O)O)[C@@H](NC(=O)c3ccc(S(=O)(=O)n4cccc4)s3)[C@@H]1C2 [II-1]

From US7084136B2, “Drug composition antagonistic to both PGD2/TXA2 receptors” (Shionogi & Co., Ltd., priority 2000, dated 2006)
